These are literature values, as cited in patent US20120258914A1, “COACERVATION PROCESS” (Alkermes, Inc., priority 2007, published 2012).

With exendin-4, for the setting “in the presence of elevated blood glucose concentrations, but not during hypoglycemia”, the secretion of insulin entry is listed as “stimulate secretion of insulin”. In addition, under “in vivo”, the “food intake and body weight” value was “affect food intake and body weight”; the gastric emptying entry is reported as “slow gastric emptying”; the glucagon secretion entry is on record as “suppress glucagon secretion”.
